Entries after “also recorded” stand apart in the source; their conditions may differ.
Legend:
normal C57B/6 mice = details: SAM administered in isolation; prior studies (Chan et al. 2007); cited from earlier work
Abeta = Abeta levels in murine brain by immunoblot; assay type: in vivo, mouse; details: normal and ApoE−/− mice
Procedure: (§1) Adult (9-12 months of age) C57B/6 mice that either express (“normal”) or lack murine ApoE (ApoE−/− mice) received a diet (“AIN-76”; Purina/Mother Hubbard, Inc.) either lacking folate and vitamin E (defined as the “deficient diet”) or supplemented with folic acid (4 mg/kg), and vitamin E (50 IU/kg total diet wet weight) (defined as the “complete diet”). The deficient diet was also supplemented in all cases with iron ([…] total diet) as a pro-oxidant (Mihalick et al., (2004) Neuromol. Med. 4:197-202; Shea and Rogers, (2002) Mol. Brain. Res. 108:1-6). Additional groups of mice maintained on each diet received SAM for the entire month (100 mg/kg diet; Chan et al., (2007) in press; Tchantchou et al., (2005) J. Alzheimers Dis. 7:135-138). Following 1 month of maintenance on these diets, mice were sacrificed by cervical dislocation, and the frontal portion of the brain (encompassing cortex and hippocampus) was immediately removed.
A portion (40-50 mg) of the above cortical/hippocampal sample was homogenized with 4 volumes of Tris-saline (50 mM Tris HCl, pH 7.4, 150 mM NaCl containing 1 mM EGTA, 0.5 mM diisopropyl fluorophosphate, 0.5 mM phenylmethylsulfonyl fluoride, 1 μg/ml N-p-tosyl-L-lysine chloromethylketone, 0.1 μg/ml pepstatin, 1 μg/ml antipain, and 1 μg/ml leupeptin). The homogenate was centrifuged at […] for 50 minutes at 4° C. […]

[1] = test system: presenilin-1 (PS-1) expression; assay: PS-1 expression by RT-PCR in murine brain; assay type: in vivo, mouse; details: normal and ApoE−/− mice, deficient diet + SAM 100 mg/kg diet, 1 month
Procedure: Adult (9-12 months of age) C57B/6 mice that either express (“normal”) or lack murine ApoE (ApoE−/− mice) received a diet (“AIN-76”; Purina/Mother Hubbard, Inc.) either lacking folate and vitamin E (defined as the “deficient diet”) or supplemented with folic acid (4 mg/kg), and vitamin E (50 IU/kg total diet wet weight) (defined as the “complete diet”). The deficient diet was also supplemented in all cases with iron ([…] total diet) as a pro-oxidant (Mihalick et al., (2004) Neuromol. Med. 4:197-202; Shea and Rogers, (2002) Mol. Brain. Res. 108:1-6). Additional groups of mice maintained on each diet received SAM for the entire month (100 mg/kg diet; Chan et al., (2007) in press; Tchantchou et al., (2005) J. Alzheimers Dis. 7:135-138). […]
To analyze PS-1 expression, total mRNA was extracted from the above homogenate using an RNA isolation kit and stored at −20° C. as described (Chan and Shea, (2006) J. Alzheimers Dis. 9:399-405). Transcription of murine PS-1 was analyzed using a set of primers 5′-[…]-3′ (SEQ ID NO: 1) and 5′-[…]-3′ (SEQ ID NO: 2) respectively, which yielded a product of 557 base pairs (bp) of the murine PS-1 gene. […] Gels were visualized under UV using a Gel Doc 2000 machine from BioRad and analyzed using Quantity One software. […]

gamma secretase = assay: Gamma secretase activity in brain homogenates (fluorescent kit); assay type: in vivo, mouse
Procedure: as §1
Gamma secretase activity was quantified by fluorescent spectroscopy using a gamma secretase activity kit according to the manufacturer's instructions (R&D Systems, Minneapolis, MN), using the APP peptide GVVIATVIV (SEQ ID NO: 5) conjugated to the reporter molecules EDANS and DABCYL and measuring the cleavage-dependent release of signal at 495 nm.

[2] = test system: mice lacking one or both murine MTHFR alleles; details: SAM supplementation; Chan et al. (2007) in press; cited from earlier work
[3] = 12 months, Aisen et al. 2003; cited from earlier work
[4] = 12 months, Aisen et al. 2003; cited from earlier work; remark: listed apart in the source
[5] = normal mice, deficient diet + SAM

C[S+](CC[C@H](N)C(=O)O)C[C@H]1O[C@@H](n2cnc3c(N)ncnc32)[C@H](O)[C@@H]1O (stereo partly shown) [SAM, S-adenosyl methionine]
performance of normal mice (normal C57B/6 mice): did not improve the performance of normal mice | effect on folate-deprivation-induced increase in Abeta levels (Abeta; folate-deficient diet + SAM): prevented these increases; also recorded: alleviated these increases | Abeta levels, SAM in the presence of folate (Abeta; folate-supplemented diet + SAM): did not alter values obtained with folate alone | effect on deficient-diet-induced increase in PS-1 expression [1]: prevented these increases; also recorded: prevented or attenuated these increases | effect on gamma-secretase activity (gamma secretase; ApoE−/− mice, SAM supplementation, FIG. 22): statistically (p<0.02) reduced secretase activity | gamma-secretase activity, less than levels on complete diet (gamma secretase; ApoE−/− mice, deficient diet + SAM): approx. 40% | effect on deficient-diet-induced increase in gamma-secretase activity (gamma secretase; [5]): attenuated by half; also recorded: reduced secretase activity in normal mice (not statistically significant) | gamma-secretase activity relative to complete diet (gamma secretase; [5]): approx. 35% | cognitive performance [2]: improved cognitive performance

COc1ccc2cc([C@H](C)C(=O)O)ccc2c1 [naproxen]
decline in ADCS-ADL [3]: nor prevented decline in ADCS-ADL | performance on the NPI [4]: Neither naproxen nor rofecoxib statistically improved performance on the NPI

CS(=O)(=O)c1ccc(C2=C(c3ccccc3)C(=O)OC2)cc1 [rofecoxib]
decline in ADCS-ADL [3]: nor prevented decline in ADCS-ADL | performance on the NPI [4]: Neither naproxen nor rofecoxib statistically improved performance on the NPI

Reference: patent US8597640B2, “Over-the-counter vitamin/nutriceutical formulation that provides neuroprotection and maintains or improves cognitive performance in alzheimer's disease and normal aging” (University of Massachusetts Lowell, priority 2007, dated 2013)
